# In PubChem BioAssay AID1745844 (Carcinogenic Potency Database (CPDB), 2022):
# Values joined by “and” are separate entries in the source; they are usually repeats but may differ in a detail not shown here. Identical values can stand only once. Active and inactive are the calls of the source. No rule for the calls is given here.
# Tested on: rodent lifetime carcinogenesis bioassay, tumor incidence TD50
# Assay: carcinogenic potency in animals, long-term in vivo studies, CPDB compilation (AID 1745844)
structure (smiles),measurement,setting,value
CN(CCCC(=O)c1cccnc1)N=O,TD50,"hamster, strain Syrian Golden, females, in drinking water, site: liver, lesion: hepatocellular carcinoma, dosed 87 weeks, study length 87 weeks",5.13 mg/kg/day (inactive)
same,carcinogen call,"hamster, strain Syrian Golden, females, in drinking water, site: lung, lesion: several types, types named in the paper, dosed 87 weeks, study length 87 weeks",negative (inactive)
same,carcinogen call,"hamster, strain Syrian Golden, females, in drinking water, site: pancreas, lesion: adenocarcinoma, dosed 87 weeks, study length 87 weeks",negative (inactive)
same,carcinogen call,"hamster, strain Syrian Golden, females, in drinking water, site: pancreatic islets, lesion: islet-cell adenoma, dosed 87 weeks, study length 87 weeks",negative (inactive)
same,TD50,"rat, strain Fischer 344, males, in drinking water, site: all sites, lesion: several types, types named in the paper, dosed 118 weeks, study length 128 weeks",0.14 mg/kg/day
same,TD50,"rat, strain Fischer 344, males, in drinking water, site: liver, lesion: adenoma, dosed 118 weeks, study length 128 weeks",0.871 mg/kg/day
same,TD50,"rat, strain Fischer 344, males, in drinking water, site: liver, lesion: hepatoma, dosed 118 weeks, study length 128 weeks",2.74 mg/kg/day
same,TD50,"rat, strain Fischer 344, males, in drinking water, site: liver, lesion: several types, types named in the paper, dosed 111 weeks, study length 111 weeks",2.97 mg/kg/day
same,TD50,"rat, strain Fischer 344, males, in drinking water, site: liver, lesion: several types, types named in the paper, dosed 118 weeks, study length 128 weeks",0.651 mg/kg/day
same,TD50,"rat, strain Fischer 344, males, in drinking water, site: lung, lesion: adenocarcinoma, dosed 111 weeks, study length 111 weeks",0.148 mg/kg/day
same,TD50,"rat, strain Fischer 344, males, in drinking water, site: lung, lesion: adenocarcinoma, dosed 118 weeks, study length 128 weeks",0.672 mg/kg/day
same,TD50,"rat, strain Fischer 344, males, in drinking water, site: lung, lesion: adenoma, dosed 111 weeks, study length 111 weeks",0.279 mg/kg/day
same,TD50,"rat, strain Fischer 344, males, in drinking water, site: lung, lesion: adenoma, dosed 118 weeks, study length 128 weeks",0.343 mg/kg/day
same,TD50,"rat, strain Fischer 344, males, in drinking water, site: lung, lesion: adenosquamous carcinoma, dosed 118 weeks, study length 128 weeks",1.46 mg/kg/day
same,TD50,"rat, strain Fischer 344, males, in drinking water, site: lung, lesion: several types, types named in the paper, dosed 111 weeks, study length 111 weeks",0.0688 mg/kg/day
same,TD50,"rat, strain Fischer 344, males, in drinking water, site: lung, lesion: several types, types named in the paper, dosed 118 weeks, study length 128 weeks",0.182 mg/kg/day
same,TD50,"rat, strain Fischer 344, males, in drinking water, site: lung, lesion: squamous-cell carcinoma, dosed 118 weeks, study length 128 weeks",3.4 mg/kg/day
same,TD50,"rat, strain Fischer 344, males, in drinking water, site: nasal cavity, lesion: several types, types named in the paper, dosed 118 weeks, study length 128 weeks",1.66 mg/kg/day
same,TD50,"rat, strain Fischer 344, males, in drinking water, site: pancreas, exocrine, lesion: acinar-cell adenoma, dosed 118 weeks, study length 128 weeks",29.2 mg/kg/day
same,TD50,"rat, strain Fischer 344, males, in drinking water, site: pancreas, exocrine, lesion: adenocarcinoma, acinar or ductal, dosed 118 weeks, study length 128 weeks",6.93 mg/kg/day
same,TD50,"rat, strain Fischer 344, males, in drinking water, site: pancreas, exocrine, lesion: malignant tumor, dosed 111 weeks, study length 111 weeks",0.975 mg/kg/day
same,TD50,"rat, strain Fischer 344, males, in drinking water, site: pancreas, exocrine, lesion: several types, types named in the paper, dosed 118 weeks, study length 128 weeks",0.49 mg/kg/day
C=C1C(CCl)(CCl)C2(Cl)C(Cl)C(Cl)C1(Cl)C2(Cl)Cl (configuration not stated),TD50,"mouse, strain B6C3F1, females, in feed, site: liver, lesion: hepatocellular adenoma, dosed 78 weeks, study length 104 weeks",91.6 mg/kg/day
same,TD50,"mouse, strain B6C3F1, females, in feed, site: liver, lesion: hepatocellular adenoma, dosed 80 weeks, study length 90 weeks",11.4 mg/kg/day and 11.6 mg/kg/day
same,TD50,"mouse, strain B6C3F1, females, in feed, site: liver, lesion: hepatocellular carcinoma, dosed 78 weeks, study length 104 weeks",66.2 mg/kg/day
same,TD50,"mouse, strain B6C3F1, females, in feed, site: liver, lesion: hepatocellular carcinoma, dosed 80 weeks, study length 90 weeks",273 mg/kg/day
same,TD50,"mouse, strain B6C3F1, females, in feed, site: liver, lesion: several types, pooled by NCI/NTP, dosed 80 weeks, study length 90 weeks",10.6 mg/kg/day and 10.8 mg/kg/day
same,TD50,"mouse, strain B6C3F1, females, in feed, site: liver, lesion: several types, types named in the paper, dosed 78 weeks, study length 104 weeks",37 mg/kg/day
same,TD50,"mouse, strain B6C3F1, males, in feed, site: liver, lesion: hepatocellular adenoma, dosed 78 weeks, study length 104 weeks",21.2 mg/kg/day
same,TD50,"mouse, strain B6C3F1, males, in feed, site: liver, lesion: hepatocellular adenoma, dosed 80 weeks, study length 90 weeks",6.12 mg/kg/day and 5.76 mg/kg/day
same,TD50,"mouse, strain B6C3F1, males, in feed, site: liver, lesion: hepatocellular carcinoma, dosed 78 weeks, study length 104 weeks",27.5 mg/kg/day
same,TD50,"mouse, strain B6C3F1, males, in feed, site: liver, lesion: hepatocellular carcinoma, dosed 80 weeks, study length 90 weeks",248 mg/kg/day and 168 mg/kg/day
same,TD50,"mouse, strain B6C3F1, males, in feed, site: liver, lesion: several types, pooled by NCI/NTP, dosed 80 weeks, study length 90 weeks",4.2 mg/kg/day and 4.08 mg/kg/day
same,TD50,"mouse, strain B6C3F1, males, in feed, site: liver, lesion: several types, types named in the paper, dosed 78 weeks, study length 104 weeks",13.6 mg/kg/day
same,TD50,"rat, strain Osborne-Mendel, females, in feed, site: any site (literature study), lesion: several types, types named in the paper, dosed 80 weeks, study length 108 weeks",596 mg/kg/day
same,TD50,"rat, strain Osborne-Mendel, females, in feed, site: thyroid gland, lesion: follicular-cell adenoma, dosed 80 weeks, study length 108 weeks",209 mg/kg/day
same,TD50,"rat, strain Osborne-Mendel, males, in feed, site: any site (literature study), lesion: several types, types named in the paper, dosed 80 weeks, study length 108 weeks",1020 mg/kg/day
same,TD50,"rat, strain Osborne-Mendel, males, in feed, site: liver, lesion: hepatocellular adenoma + hepatocellular carcinoma + neoplastic nodule, dosed 80 weeks, study length 108 weeks",949 mg/kg/day
same,TD50,"rat, strain Osborne-Mendel, males, in feed, site: liver, lesion: neoplastic nodule, dosed 80 weeks, study length 108 weeks",92.1 mg/kg/day
same,TD50,"rat, strain Osborne-Mendel, males, in feed, site: thyroid gland, lesion: follicular-cell adenoma + follicular-cell carcinoma, dosed 80 weeks, study length 108 weeks",58.9 mg/kg/day
CC1=CC(C)(C)N(N=O)c2ccccc21,TD50,"rat, strain CB, males, i.p., site: peritoneal cavity, lesion: sarcoma, dosed 26 weeks, study length 100 weeks",3.31 mg/kg/day
CCN=c1cc2oc3cc(NCC)c(C)cc3c(-c3ccccc3C(=O)OCC)c-2cc1C,carcinogen call,"mouse, strain B6C3F1, females, in feed, site: any site (literature study), lesion: several types, types named in the paper, dosed 103 weeks, study length 105 weeks",negative (inactive)
same,TD50,"mouse, strain B6C3F1, males, in feed, site: thyroid gland, lesion: follicular-cell adenoma + follicular-cell carcinoma, dosed 103 weeks, study length 105 weeks",1210 mg/kg/day (inactive)
same,TD50,"rat, strain Fischer 344, females, in feed, site: adrenal medulla, lesion: pheochromocytoma, malignant + pheochromocytoma, benign, dosed 103 weeks, study length 105 weeks",47.1 mg/kg/day
same,TD50,"rat, strain Fischer 344, males, in feed, site: liver, lesion: hepatocellular adenoma + hepatocellular carcinoma + neoplastic nodule, dosed 103 weeks, study length 105 weeks",553 mg/kg/day
same,TD50,"rat, strain Fischer 344, males, in feed, site: skin, lesion: keratoacanthoma, dosed 103 weeks, study length 105 weeks",34.5 mg/kg/day
CCNN,TD50,"mouse, strain Swiss albino, females, in drinking water, site: blood vessels, lesion: angioma, dosed 82 weeks, study length 82 weeks",42.9 mg/kg/day
same,TD50,"mouse, strain Swiss albino, females, in drinking water, site: blood vessels, lesion: angiosarcoma, dosed 82 weeks, study length 82 weeks",27.6 mg/kg/day
same,TD50,"mouse, strain Swiss albino, females, in drinking water, site: blood vessels, lesion: several types, types named in the paper, dosed 82 weeks, study length 82 weeks",11.6 mg/kg/day
same,TD50,"mouse, strain Swiss albino, females, in drinking water, site: liver, lesion: angioma, dosed 82 weeks, study length 82 weeks",42.9 mg/kg/day
same,TD50,"mouse, strain Swiss albino, females, in drinking water, site: liver, lesion: angiosarcoma, dosed 82 weeks, study length 82 weeks",27.6 mg/kg/day
same,TD50,"mouse, strain Swiss albino, females, in drinking water, site: liver, lesion: several types, types named in the paper, dosed 82 weeks, study length 82 weeks",13 mg/kg/day
same,TD50,"mouse, strain Swiss albino, females, in drinking water, site: lung, lesion: adenocarcinoma, dosed 82 weeks, study length 82 weeks",14 mg/kg/day
same,TD50,"mouse, strain Swiss albino, females, in drinking water, site: lung, lesion: adenoma, dosed 82 weeks, study length 82 weeks",5.62 mg/kg/day
same,TD50,"mouse, strain Swiss albino, females, in drinking water, site: lung, lesion: several types, types named in the paper, dosed 82 weeks, study length 82 weeks",5.22 mg/kg/day
same,TD50,"mouse, strain Swiss albino, males, in drinking water, site: blood vessels, lesion: angiosarcoma, dosed 72 weeks, study length 72 weeks",46.9 mg/kg/day
same,TD50,"mouse, strain Swiss albino, males, in drinking water, site: blood vessels, lesion: several types, types named in the paper, dosed 72 weeks, study length 72 weeks",38.6 mg/kg/day
same,TD50,"mouse, strain Swiss albino, males, in drinking water, site: liver, lesion: angiosarcoma, dosed 72 weeks, study length 72 weeks",46.9 mg/kg/day
same,TD50,"mouse, strain Swiss albino, males, in drinking water, site: liver, lesion: several types, types named in the paper, dosed 72 weeks, study length 72 weeks",48.1 mg/kg/day
same,TD50,"mouse, strain Swiss albino, males, in drinking water, site: lung, lesion: adenoma, dosed 72 weeks, study length 72 weeks",7.82 mg/kg/day
same,TD50,"mouse, strain Swiss albino, males, in drinking water, site: lung, lesion: several types, types named in the paper, dosed 72 weeks, study length 72 weeks",8.81 mg/kg/day
OCC(CO)N[C@H]1C[C@](O)(CO)[C@@H](O)[C@H](O)[C@H]1O,carcinogen call,"mouse, strain Charles River CD1, females, by gavage, site: liver, lesion: hepatocellular adenoma, dosed 101 weeks, study length 101 weeks",negative (inactive)
same,carcinogen call,"mouse, strain Charles River CD1, females, by gavage, site: lung, lesion: alveolar/bronchiolar adenoma, dosed 101 weeks, study length 101 weeks",negative (inactive)
same,carcinogen call,"mouse, strain Charles River CD1, males, by gavage, site: liver, lesion: hepatocellular adenoma, dosed 83 weeks, study length 83 weeks",negative (inactive)
same,carcinogen call,"mouse, strain Charles River CD1, males, by gavage, site: liver, lesion: hepatocellular carcinoma, dosed 83 weeks, study length 83 weeks",negative (inactive)
same,TD50,"mouse, strain Charles River CD1, males, by gavage, site: lung, lesion: alveolar/bronchiolar adenoma, dosed 83 weeks, study length 83 weeks",1370 mg/kg/day (inactive)
same,carcinogen call,"rat, strain F344/DuCrj, females, by gavage, site: liver, lesion: one or several types, types not named, dosed 104 weeks, study length 104 weeks",negative (inactive)
same,TD50,"rat, strain F344/DuCrj, females, by gavage, site: mammary gland, lesion: fibroadenoma, dosed 104 weeks, study length 104 weeks",119 mg/kg/day (inactive)
same,TD50,"rat, strain F344/DuCrj, males, by gavage, site: liver, lesion: hepatocellular adenoma, dosed 104 weeks, study length 104 weeks",575 mg/kg/day (inactive)
same,TD50,"rat, strain F344/DuCrj, males, by gavage, site: liver, lesion: hepatocellular carcinoma, dosed 104 weeks, study length 104 weeks",1740 mg/kg/day (inactive)
same,TD50,"rat, strain F344/DuCrj, males, by gavage, site: testis, lesion: interstitial-cell tumor, dosed 104 weeks, study length 104 weeks",9.27 mg/kg/day (inactive)
CC(CN1CC(=O)NC(=O)C1)N1CC(=O)NC(=O)C1 (configuration not stated),TD50,"mouse, strain B6C3F1, females, i.p., site: all sites, lesion: leukemia + lymphoma, histiocytic type + lymphoma, dosed 52 weeks, study length 86 weeks",23.7 mg/kg/day
same,TD50,"mouse, strain B6C3F1, females, i.p., site: all sites, lesion: leukemia + lymphoma, dosed 52 weeks, study length 86 weeks",23.7 mg/kg/day and 25.9 mg/kg/day
same,TD50,"mouse, strain B6C3F1, females, i.p., site: all sites, lesion: lymphoma, histiocytic type, dosed 52 weeks, study length 86 weeks",53.7 mg/kg/day
same,TD50,"mouse, strain B6C3F1, females, i.p., site: any site (literature study), lesion: several types, types named in the paper, dosed 52 weeks, study length 86 weeks",16.8 mg/kg/day
same,TD50,"mouse, strain B6C3F1, males, i.p., site: any site (literature study), lesion: several types, types named in the paper, dosed 52 weeks, study length 86 weeks",262 mg/kg/day (inactive)
same,TD50,"mouse, strain B6C3F1, males, i.p., site: lung, lesion: alveolar/bronchiolar adenoma + alveolar/bronchiolar carcinoma, dosed 52 weeks, study length 86 weeks",212 mg/kg/day
same,TD50,"rat, strain Sprague-Dawley, females, i.p., site: any site (literature study), lesion: several types, types named in the paper, dosed 52 weeks, study length 81 weeks",6.48 mg/kg/day
same,TD50,"rat, strain Sprague-Dawley, females, i.p., site: uterus, lesion: adenocarcinoma, NOS, dosed 52 weeks, study length 79 weeks",10.7 mg/kg/day
same,TD50,"rat, strain Sprague-Dawley, females, i.p., site: uterus, lesion: adenocarcinoma, NOS, dosed 52 weeks, study length 81 weeks",11.3 mg/kg/day
same,TD50,"rat, strain Sprague-Dawley, males, i.p., site: any site (literature study), lesion: several types, types named in the paper, dosed 52 weeks, study length 81 weeks",9.55 mg/kg/day (inactive)
same,TD50,"rat, strain Sprague-Dawley, males, i.p., site: liver, lesion: hepatocellular adenoma + hepatocellular carcinoma + neoplastic nodule, dosed 52 weeks, study length 81 weeks",105 mg/kg/day
